Measured values taken from patent publication US7816522B2, “Triazolone derivatives” (Eisai Co., Ltd., priority 2006, dated 2010).
Structures can show the parent of a compound that is named as a salt.

Biological target: T1, human clotting factor VIIa (Homo sapiens, UniProt P08709)
T1 construct: a human clotting factor VIIa (hereinafter, “Factor VIIa”) purified sample; purchased Enzyme Research Laboratories HFVIIa
Assay: Inhibitory activity against clotting factor VIIa (chromogenic substrate Spectrozyme FVIIa, TF/Factor VIIa enzyme solution)
Format: biochemical
Conditions: human Factor VIIa 5 nmol/L with human TF 10 nmol/L, room temperature 40 minutes, 405 nm
Method in brief: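 Human Factor VIIa (5 nmol/L) with human TF (10 nmol/L) in Tris-BSA buffer pH 7.4 containing 15 mmol/L CaCl2 and cephalin, with Spectrozyme FVIIa substrate. Reaction 40 min at room temperature; 4-nitroanilide read at 405 nm. IC50 by non-linear regression over 100 μmol/L–0.1 nmol/L.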

T1 sequence (P08709 213-466 limits assumed): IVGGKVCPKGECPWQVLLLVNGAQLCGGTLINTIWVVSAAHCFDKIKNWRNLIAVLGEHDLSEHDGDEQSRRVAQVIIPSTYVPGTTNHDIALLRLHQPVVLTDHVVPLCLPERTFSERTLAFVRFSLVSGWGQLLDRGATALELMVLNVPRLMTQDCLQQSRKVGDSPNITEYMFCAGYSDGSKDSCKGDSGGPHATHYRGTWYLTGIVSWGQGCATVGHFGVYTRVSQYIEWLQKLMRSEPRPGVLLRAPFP
T1 sequence (P08709 61-212 limits assumed): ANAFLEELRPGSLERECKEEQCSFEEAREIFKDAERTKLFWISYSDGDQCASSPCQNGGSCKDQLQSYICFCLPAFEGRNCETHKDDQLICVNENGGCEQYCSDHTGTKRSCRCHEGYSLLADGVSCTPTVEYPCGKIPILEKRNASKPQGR
T1 sequence (P13726 33-295 partner): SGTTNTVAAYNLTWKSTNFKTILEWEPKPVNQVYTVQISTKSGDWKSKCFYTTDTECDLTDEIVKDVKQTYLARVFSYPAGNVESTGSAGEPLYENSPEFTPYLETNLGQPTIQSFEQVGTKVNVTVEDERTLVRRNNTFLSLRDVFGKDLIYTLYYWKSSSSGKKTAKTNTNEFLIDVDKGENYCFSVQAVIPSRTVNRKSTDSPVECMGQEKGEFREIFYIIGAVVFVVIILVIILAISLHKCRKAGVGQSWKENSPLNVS

COc1cc(OCCCO)c(F)c(C(Nc2ccc(C(=N)N)cc2)c2nn(-c3[nH]ncc3C(=O)O)c(=O)[nH]2)c1 (centres unmarked) [Example 177, 5-(3-{(4-carbamimidoylphenylamino)-[2-fluoro-3-(3-hydroxypropoxy)-5-methoxyphenyl]methyl}-5-oxo-4,5-dihydro-[1,2,4]triazol-1-yl)-1H-pyrazole-4-carboxylic acid acetate]
IC50: 27.6 nM

COc1cc(OCCO)c(F)c(C(Nc2ccc(C(=N)N)cc2)c2nn(-c3ncccn3)c(=O)[nH]2)c1 (centres unmarked) [Example 181, 4-({[2-fluoro-3-(2-hydroxyethoxy)-5-methoxyphenyl]-(5-oxo-1-pyrimidin-2-yl-4,5-dihydro-1H-[1,2,4]triazol-3-yl)methyl}amino)benzamidine acetate]
IC50: 9.3 nM

COc1cc(OCCO)c(F)c(C(Nc2ccc(C(=N)N)cc2)c2nn(-c3ncsc3C(=O)O)c(=O)[nH]2)c1 (centres unmarked) [Example 182, 4-(3-{(4-carbamimidoylphenylamino)-[2-fluoro-3-(2-hydroxyethoxy)-5-methoxyphenyl]methyl}-5-oxo-4,5-dihydro[1,2,4]triazol-1-yl)thiazole-5-carboxylic acid trifluoroacetate]
IC50: 41.7 nM

COc1cc(C(Nc2ccc(C(=N)N)cc2)c2nn(-c3[nH]ncc3C(=O)O)c(=O)[nH]2)c(F)c2c1OCCC2 (centres unmarked) [Example 189, 5-{3-[(4-Carbamimidoylphenylamino)-(5-fluoro-8-methoxychroman-6-yl)methyl]-5-oxo-4,5-dihydro-[1,2,4]triazol-1-yl}-1H-pyrazole-4-carboxylic acid]
IC50: 32.2 nM

CCOC(=O)c1cn[nH]c1-n1nc(C(Nc2ccc(C(=N)N)cc2)c2cc(OC)c3c(c2F)OCCCO3)[nH]c1=O (centres unmarked) [Example 192, 5-{3-[(4-Carbamimidoylphenylamino)-(6-fluoro-9-methoxy-3,4-dihydro-2H-benzo[b][1,4]dioxepin-7-yl)methyl]-5-oxo-4,5-dihydro-[1,2,4]triazol-1-yl}-1H-pyrazole-4-carboxylic acid ethyl ester acetate]
IC50: 5.4 nM

COc1cc(C(Nc2ccc(C(=N)N)cc2)c2nn(-c3[nH]ncc3C(=O)O)c(=O)[nH]2)c(F)c2c1OCCCO2 (centres unmarked) [Example 196, 5-{3-[(4-Carbamimidoylphenylamino)-(6-fluoro-9-methoxy-3,4-dihydro-2H-benzo[b][1,4]dioxepin-7-yl)methyl]-5-oxo-4,5-dihydro-[1,2,4]triazol-1-yl}-1H-pyrazole-4-carboxylic acid acetate]
IC50: 17.8 nM

CCOC(=O)c1cn[nH]c1-n1nc(C(Nc2ccc(C(=N)N)cc2)c2cc(OC)c3c(c2F)OCCO3)[nH]c1=O (centres unmarked) [Example 197, 5-{3-[(4-Carbamimidoylphenylamino)-(5-fluoro-8-methoxy-2,3-dihydrobenzo[1,4]dioxin-6-yl)methyl]-5-oxo-4,5-dihydro-[1,2,4]triazol-1-yl}-1H-pyrazole-4-carboxylic acid ethyl ester trifluoroacetate]
IC50: 7.8 nM

COc1cc(OCCO)c(F)c(C(Nc2ccc(C(=N)N)cc2)c2nn(-c3ncccc3N)c(=O)[nH]2)c1 (centres unmarked) [Example 200, 4-({[1-(3-Aminopyridin-2-yl)-5-oxo-4,5-dihydro-1H-[1,2,4]triazol-3-yl]-[2-fluoro-3-(2-hydroxyethoxy)-5-methoxyphenyl]methyl}amino)benzamidine]
IC50: 11.3 nM

COCCOc1cc(OC)cc(C(Nc2ccc(C(=N)N)cc2)c2nn(-c3ncccc3N)c(=O)[nH]2)c1F (centres unmarked) [Example 202, 4-({[1-(3-Aminopyridin-2-yl)-5-oxo-4,5-dihydro-1H-[1,2,4]triazol-3-yl]-[2-fluoro-5-methoxy-3-(2-methoxyethoxy)phenyl]methyl}amino)benzamidine acetate]
IC50: 12 nM

CCc1cc(OCCCO)c(F)c(C(Nc2ccc(C(=N)N)cc2)c2nn(-c3ncccc3N)c(=O)[nH]2)c1 (centres unmarked) [Example 204, 4-({[1-(3-Aminopyridin-2-yl)-5-oxo-4,5-dihydro-1H-[1,2,4]triazol-3-yl]-[5-ethyl-2-fluoro-3-(3-hydroxypropoxy)phenyl]methyl}amino)benzamidine acetate]
IC50: 2.7 nM

COc1cc(OCCO)cc(C(Nc2ccc(C(=N)N)cc2)c2nn(-c3ncccc3N)c(=O)[nH]2)c1 (centres unmarked) [Example 207, 4-({[1-(3-Aminopyridin-2-yl)-5-oxo-4,5-dihydro-1H-[1,2,4]triazol-3-yl]-[3-(2-hydroxyethoxy)-5-methoxyphenyl]methyl}amino)benzamidine acetate]
IC50: 19.9 nM

COc1cc(C(Nc2ccc(C(=N)N)cc2)c2nn(-c3ncccc3N)c(=O)[nH]2)c(F)c2c1OCCC2 (centres unmarked) [Example 209, 4-{[[1-(3-Aminopyridin-2-yl)-5-oxo-4,5-dihydro-1H-[1,2,4]triazol-3-yl]-(5-fluoro-8-methoxychroman-6-yl)methyl]amino}benzamidine trifluoroacetate]
IC50: 4 nM

COc1cc(OC)c(F)c(C(Nc2ccc(C(=N)N)cc2)c2nn(-c3cccc(C(=O)O)n3)c(=O)[nH]2)c1 (centres unmarked) [Example 210, 6-{3-[(4-Carbamimidoylphenylamino)-(2-fluoro-3,5-dimethoxyphenyl)methyl]-5-oxo-4,5-dihydro-[1,2,4]triazol-1-yl}pyridine-2-carboxylic acid trifluoroacetate]
IC50: 39.1 nM

COc1cc(O)c(F)c(C(Nc2ccc(C(=N)N)cc2)c2nn(-c3ncccn3)c(=O)[nH]2)c1 (centres unmarked) [Example 224, 4-{[(2-Fluoro-3-hydroxy-5-methoxyphenyl)-(5-oxo-1-pyrimidin-2-yl-4,5-dihydro-1H-[1,2,4]triazol-3-yl)methyl]amino}benzamidine acetate]
IC50: 48.8 nM
